The test concerns the target T1, ERCC1-XPF (Homo sapiens, UniProt P07992+Q92889).
T1 construct: made in house; host or cells: Sf9 insect cells, baculovirus (obtained from Aziz Sancar)
T1 sequence (Q92889 1-916): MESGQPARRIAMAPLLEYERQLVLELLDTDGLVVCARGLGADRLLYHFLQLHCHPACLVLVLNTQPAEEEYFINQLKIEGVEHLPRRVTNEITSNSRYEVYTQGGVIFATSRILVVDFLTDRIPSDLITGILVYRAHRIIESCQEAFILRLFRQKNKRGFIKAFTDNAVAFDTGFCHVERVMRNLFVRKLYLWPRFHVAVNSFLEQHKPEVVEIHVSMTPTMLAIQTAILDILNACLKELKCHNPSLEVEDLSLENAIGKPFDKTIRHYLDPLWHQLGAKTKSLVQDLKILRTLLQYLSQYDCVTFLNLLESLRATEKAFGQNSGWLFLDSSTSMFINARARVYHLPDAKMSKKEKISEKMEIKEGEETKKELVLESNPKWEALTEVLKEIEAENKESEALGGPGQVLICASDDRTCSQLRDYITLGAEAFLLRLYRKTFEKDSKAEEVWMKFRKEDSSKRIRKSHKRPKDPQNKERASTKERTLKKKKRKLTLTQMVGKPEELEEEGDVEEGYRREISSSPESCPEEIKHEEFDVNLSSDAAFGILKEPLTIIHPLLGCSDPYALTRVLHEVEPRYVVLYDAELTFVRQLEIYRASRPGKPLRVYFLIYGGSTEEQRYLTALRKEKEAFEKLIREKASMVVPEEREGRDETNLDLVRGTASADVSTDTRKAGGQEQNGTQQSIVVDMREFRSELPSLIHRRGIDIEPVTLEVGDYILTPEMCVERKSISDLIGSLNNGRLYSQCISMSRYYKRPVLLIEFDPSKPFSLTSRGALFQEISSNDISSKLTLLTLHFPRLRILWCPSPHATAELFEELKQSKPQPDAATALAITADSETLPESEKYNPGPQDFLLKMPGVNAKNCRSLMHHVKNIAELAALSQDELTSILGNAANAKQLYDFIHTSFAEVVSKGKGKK
T1 sequence (P07992 1-297): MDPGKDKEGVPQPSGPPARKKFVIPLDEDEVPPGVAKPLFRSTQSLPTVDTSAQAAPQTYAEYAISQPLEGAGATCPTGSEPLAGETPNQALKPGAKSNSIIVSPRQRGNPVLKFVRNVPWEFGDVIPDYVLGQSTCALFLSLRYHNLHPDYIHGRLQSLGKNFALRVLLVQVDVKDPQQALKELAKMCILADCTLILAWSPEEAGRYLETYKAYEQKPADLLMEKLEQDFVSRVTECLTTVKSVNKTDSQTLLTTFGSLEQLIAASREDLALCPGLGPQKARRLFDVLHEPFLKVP
As to the kind of experiment: Gel-based in vitro incision assay, ERCC1-XPF. Format: biochemical. Particulars: purified ERCC1-XPF, 5'-32P DNA substrate, 37°C; read-out: IC50 from the gel-based assay. The protocol: The gel-based in vitro incision assay has been described and extensively used. Here, we titrated Hit 1 (Figure 2A) with ERCC1-XPF or control endonuclease HhaI (Figure 2B) on ice and reactions were initiated by the addition of the 5'-[^32P] radiolabeled DNA substrate at 37°C. The products are visualized via phosphorimager analysis and the ERCC1-XPF or HhaI incised product is illustrated as a faster migrating band in the gel (Figure 2A and 2B).
Hits from the HTS fluorescence screen were validated in a gel based nuclease activity assay as previously described. This assay is robust and highly quantitative. Briefly, the 26- mer DNA substrate (Figure 1) was labeled on the 5'-terminus with [γ^32P]-ATP using T4 polynucleotide kinase (NEB) for 30 minutes at 37°C. The 5'-labeled DNA substrate was annealed to its complementary strand by heating to 95°C for 5 minutes, followed by 65°C and then 37°C for a total of 2 hours. This substrate was gel-purified on a 10% native polyacrylamide gel in TBE (Tris, borate, EDTA electrophoresis buffer), developed, cut and kept for gel elution overnight at 4°C. Post gel elution, the substrate was ethanol precipitated and the counts were determined. The final substrate was stored at −20°C. […]

On to `Cc1ccc(S(=O)(=O)Oc2cc(S(=O)(=O)O)cc3cc(S(=O)(=O)O)cc(N)c23)cc1` [NSC16168], for which the IC50 was ~500 nM.

Take `Oc1cc(O)c2c(c1)OC(c1ccc(O)c(O)c1)C(O)C2c1c(O)cc(O)c2c1OC(c1ccc(O)c(O)c1)C(O)C2` (centres unmarked) [NSC143099]: the IC50 is ~25 nM.

The IC50 is the concentration needed to halve the response being measured.

These data come from publication PMC5342726, “Identification of small molecule inhibitors of ERCC1-XPF that inhibit DNA repair and potentiate cisplatin efficacy in cancer cells” (Oncotarget, 2016).
